Data as given in US10414725B2, “Pyrrolomycins and methods of using the same” (priority 2015, dated 2019).
Converted amounts (≈) assume the structure as drawn. Read-outs that look alike come from different tables or passages of the source.

Columns and labels:
[1] = test system: Bacillus anthracis V770-NP1-R; assay: microbe, parasite or virus in culture; type: cell-based; conditions: V770NP1R, read-out: MIC BA
[2] = test system: Staphyloccocus aureus USA300; assay: Minimum inhibitory concentration, broth microdilution, Staphylococcus aureus; type: cell-based; conditions: for MIC: Staphylococcus aureus
[3] = test system: human Hela cells; assay: Mammalian cytotoxicity assay (CellTiter 96 AQueous One); type: cell-based; conditions: 24 h, highest concentration tested 100 μM, read-out: IC50 human Hela cell proliferation
[4] = test system: Staphylococcus aureus; assay: Minimum bactericidal concentration / bactericidal activity against SA; type: cell-based; conditions: for MBC (100% killing of SA): 24 hours, n=4
[5] = test system: S. aureus biofilms; assay: Anti-staphylococcal biofilm activity (static biofilms, cfu); type: cell-based, Staphylococcus aureus
[6] = test system: Bacillus anthracis; assay: microbe, parasite or virus in culture; conditions: 1 h, read-out: reduction of BA culture viability
[7] = Pharmacokinetics of pyrrolomycin 4 in mice (LC-MS/MS of plasma)
[8] = Staphyloccocus aureus USA300, n ≥ 3, read-out: MIC SA

O=C(c1cc(F)cc(F)c1O)c1[nH]c(Br)c(Br)c1Br [Compound 3]
MIC [1]: 0.031 µg/mL (≈ 0.0674 µM)
MIC [2, 8]: 0.17 µg/mL (≈ 0.37 µM)
IC50 [3]: > 46 µg/mL
melting point: 151.8 to 152.7 °C

O=C(c1cc(Br)c(F)[nH]1)c1cc(Cl)cc(Cl)c1O [Compound 4]
MIC [1]: 0.047 µg/mL (≈ 0.133 µM)
MIC ([2]; USA300, read-out: MIC SA): 0.073 µg/mL (≈ 0.207 µM)
IC50 [3]: > 35.3 µg/mL
killing of SA ([4]; 4 μg/mL, no growth of colonies after incubation for 48 hours): 100%
MBC (100% killing of SA) [4]: 4 µg/mL
biofilm killing ([5]; 24 hours, 8.0 μg/mL, n=4): 84%
biofilm killing ([5]; 48 hours, 8.0 μg/mL): 97%
biofilm killing ([5]; 120 hours, 8.0 μg/mL): > 99.9%
inhibition at […] [6]: 60%
oral bioavailability ([7]; 10 mg/kg oral vs 1.0 mg/kg IV): 35%
elimination half-life ([7]; IV): 6.04 h
time parent compound detectable in plasma ([7]; IV and oral, detection limit 0.8 ng/mL): up to 72 hours
AUC ([7]; IV dose 1 mg/kg): 3800 ng·h/mL
elimination half-life ([7]; oral): 6.75 h
AUC ([7]; oral dose 10 mg/kg): 13200 ng·h/mL

COc1c(F)cc(F)cc1C(=O)c1ccc[nH]1 [Compound 8]
MIC [1]: > 4 µg/mL
MIC [2, 8]: > 4 µg/mL
melting point: 85.7 to 87.1 °C

O=C(c1ccc[nH]1)c1cc(F)cc(F)c1O [Compound 9]
MIC [1]: > 4 µg/mL
MIC [2, 8]: > 4 µg/mL
melting point: 161.7 to 162.5 °C

COc1c(F)cc(F)cc1C(=O)c1[nH]c(Br)c(Br)c1Br [Compound 10]
MIC [1]: 1.5 µg/mL (≈ 3.17 µM)
MIC [2, 8]: 3 µg/mL (≈ 6.33 µM)
melting point: 178.9 to 179.7 °C

COc1c(F)cc(F)cc1C(=O)c1c(Br)c(Br)c(Br)n1C [Compound 11]
MIC [1]: > 4 µg/mL
MIC [2, 8]: > 4 µg/mL
melting point: 107.4 to 108.1 °C

Cn1c(Br)c(Br)c(Br)c1C(=O)c1cc(F)cc(F)c1O [Compound 12]
MIC [1]: > 4 µg/mL
MIC [2, 8]: > 4 µg/mL
melting point: 156.2 to 157.2 °C

O=C(c1ccc[nH]1)c1cc(Cl)cc(Cl)c1O [Compound 15]
MIC [1]: > 4 µg/mL
MIC ([2]; USA300, read-out: MIC SA): > 4 µg/mL

O=C(c1cc(Br)c(Br)[nH]1)c1cc(Cl)cc(Cl)c1O [Compound 17]
MIC [1]: 0.188 µg/mL (≈ 0.454 µM)
MIC ([2]; USA300, read-out: MIC SA): 0.073 µg/mL (≈ 0.176 µM)
IC50 [3]: > 41.4 µg/mL

O=C(c1cc(Cl)cc(Cl)c1O)c1[nH]c(F)c(Br)c1Br [Compound 18]
MIC [1]: 0.125 µg/mL (≈ 0.289 µM)
MIC [2, 8]: 0.19 µg/mL (≈ 0.44 µM)
IC50 [3]: > 43.2 µg/mL
melting point: 171.9 to 172.7 °C
inhibition at […] [6]: 92%

O=C(c1cc(Br)c[nH]1)c1cc(Cl)cc(Cl)c1O [Compound 19]
MIC SA ([2]; Staphyloccocus aureus USA300, n ≥ 3): >4.0 µg/mL
MIC ([2]; USA300, read-out: MIC SA): > 4 µg/mL

CN[C@H](CC(C)C)C(=O)N[C@H]1C(=O)N[C@@H](CC(N)=O)C(=O)N[C@H]2C(=O)N[C@H]3C(=O)N[C@H](C(=O)N[C@H](C(=O)O)c4cc(O)cc(O)c4-c4cc3ccc4O)[C@H](O)c3ccc(c(Cl)c3)Oc3cc2cc(c3O[C@@H]2O[C@H](CO)[C@@H](O)[C@H](O)[C@H]2O[C@H]2C[C@](C)(N)[C@H](O)[C@H](C)O2)Oc2ccc(cc2Cl)[C@H]1O [vancomycin, reference compound]
MIC [2, 8]: 2 µg/mL (≈ 1.38 µM)
MBC (100% killing of SA) [4]: 8 µg/mL
biofilm killing ([5]; 24 hours, 32 μg/mL, n=4): 11%
biofilm killing ([5]; 120 hours, 32 μg/mL): 39%
